The record followed here is paper PMC9672091, “Ameliorative effect of vanillin on scopolamine-induced dementia-like cognitive impairment in a mouse model” (Frontiers in Neuroscience, 2022).

This test deals with T1, acetylcholinesterase enzyme (from electric eel) (Electrophorus electricus, UniProt O42275).
T1 construct: gene ache; commercial enzyme from electric eel (Sigma-Aldrich), native source; no construct or oligomer details printed
The test can be described thus: modified Ellman assay, absorbance at […] nm. The class given is biochemical. In general terms: In Ellman's method for cholinesterases, released thiocholine reacts with DTNB.

T1 sequence (O42275 24-633): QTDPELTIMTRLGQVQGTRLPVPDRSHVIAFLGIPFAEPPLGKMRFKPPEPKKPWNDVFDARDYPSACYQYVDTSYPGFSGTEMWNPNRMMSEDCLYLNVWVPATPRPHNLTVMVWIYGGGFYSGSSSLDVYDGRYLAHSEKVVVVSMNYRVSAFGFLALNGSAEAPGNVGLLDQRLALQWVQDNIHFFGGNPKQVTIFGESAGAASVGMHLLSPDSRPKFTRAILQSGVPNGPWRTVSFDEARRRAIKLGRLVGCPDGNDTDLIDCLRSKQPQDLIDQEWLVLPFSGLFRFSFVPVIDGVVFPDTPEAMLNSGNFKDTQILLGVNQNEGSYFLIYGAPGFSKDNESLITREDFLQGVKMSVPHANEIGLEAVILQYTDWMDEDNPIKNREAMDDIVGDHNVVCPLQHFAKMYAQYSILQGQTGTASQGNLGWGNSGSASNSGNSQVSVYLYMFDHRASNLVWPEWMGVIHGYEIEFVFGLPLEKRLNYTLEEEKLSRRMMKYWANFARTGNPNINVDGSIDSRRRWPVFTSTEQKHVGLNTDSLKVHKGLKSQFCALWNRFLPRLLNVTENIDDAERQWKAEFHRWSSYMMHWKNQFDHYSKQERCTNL

For orientation: IC50 means the concentration needed to halve the response being measured. A lower IC50 goes with greater potency in that assay. As to `COc1cc(C=O)ccc1O` [Vanillin], the IC50 was determined as 33 µM.
